Data: paper PMC2574866 (Drug metabolism and disposition: the biological fate of …, 2008)
Where two headings read alike, the source gives them in different places.

How the values were obtained:
[1] = literature value, cited from earlier work
[2] = target: bovine serum albumin (BSA) / essentially fatty acid-free BSA (BSA-FAF) (Bos taurus, UniProt P02769)
[3] = system: sandwich-cultured rat hepatocytes; conditions: for biliary excretion index (BEI), effect of BSA-FAF / unbound intrinsic biliary clearance (intrinsic Cl'biliary), effect of BSA-FAF: 4% (w/v) BSA-FAF vs no BSA or BSA
[4] = 4% (w/v) BSA vs no BSA, 10 min incubation
[5] = six long chain fatty acids added to BSA-FAF, n = 1 liver
[6] = addition of 1 mM Ca2+ (calcium chloride) to BSA-FAF, n = 1 liver

Sequence of bovine serum albumin (BSA) / essentially fatty acid-free BSA (BSA-FAF) (P02769 25-607): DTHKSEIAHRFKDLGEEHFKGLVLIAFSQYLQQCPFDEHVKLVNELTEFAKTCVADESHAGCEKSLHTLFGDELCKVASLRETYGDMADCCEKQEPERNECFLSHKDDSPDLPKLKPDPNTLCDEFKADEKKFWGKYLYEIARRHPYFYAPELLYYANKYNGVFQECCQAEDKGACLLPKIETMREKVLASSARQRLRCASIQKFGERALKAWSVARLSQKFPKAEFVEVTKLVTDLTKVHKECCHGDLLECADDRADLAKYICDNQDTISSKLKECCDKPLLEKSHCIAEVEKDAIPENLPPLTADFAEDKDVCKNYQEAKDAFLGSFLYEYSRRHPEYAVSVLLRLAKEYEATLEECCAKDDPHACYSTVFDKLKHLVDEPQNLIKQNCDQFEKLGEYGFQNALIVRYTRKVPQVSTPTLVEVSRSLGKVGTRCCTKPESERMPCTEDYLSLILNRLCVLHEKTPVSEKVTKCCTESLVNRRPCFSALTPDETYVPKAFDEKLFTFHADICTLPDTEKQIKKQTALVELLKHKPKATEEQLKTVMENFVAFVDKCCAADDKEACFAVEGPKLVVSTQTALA

SMILES | unbound fraction (fu) ([1]; ref Forker and Luxon, 1981, Hung et al., 2005) | fu dependence on compound concentration [2] | fu in the presence of BSA compared to BSA-FAF [2] | binding to albumin ([2]; bovine) | unbound intrinsic biliary clearance (intrinsic Cl'biliary), effect of BSA [3, 4] | accumulation in sandwich-cultured rat hepatocytes ([3]; in the presence of BSA or BSA-FAF vs no BSA) | unbound fraction (fu) ([1]; ref Hatanaka, 2000) | fu in the presence of BSA-FAF, effect of addition of long chain fatty acids [2] | biliary excretion index (BEI), effect of BSA-FAF ([3]; 10 min incubation) | unbound intrinsic biliary clearance (intrinsic Cl'biliary), effect of BSA-FAF ([3]; 10 min incubation) | BEI in the presence of BSA-FAF, effect of addition of long chain fatty acids [3, 5] | intrinsic Cl'biliary in the presence of BSA-FAF, effect of addition of long chain fatty acids [3, 5] | unbound fraction (fu) ([1]; ref Lacy et al., 2002) | biliary excretion index (BEI), effect of BSA [3, 4] | BEI in the presence of BSA-FAF, effect of additional Ca2+ [3, 6] | intrinsic Cl'biliary in the presence of BSA-FAF, effect of additional Ca2+ [3, 6]
C[C@H](CCC(=O)NCCS(=O)(=O)O)[C@H]1CC[C@H]2[C@@H]3[C@H](O)C[C@@H]4C[C@H](O)CC[C@]4(C)[C@H]3C[C@H](O)[C@]12C [taurocholate] | ~ 0.15 | concentration-independent | significantly higher | approximately 85% | unaffected | notably decreased | – | – | – | – | – | – | – | – | – | –
CC[C@H](C)C(=O)O[C@H]1C[C@H](O)C=C2C=C[C@H](C)[C@H](CC[C@@H](O)C[C@@H](O)CC(=O)O)[C@H]21 [pravastatin] | – | concentration-independent | significantly higher | – | not significantly different | – | ~ 0.5 | unable to mitigate this effect | significantly decreased | significantly decreased | unable to mitigate this effect | unable to mitigate this effect | – | – | – | –
C[C@H]1O[C@@H](O[C@H]2[C@@H](O)C[C@H](O[C@H]3[C@@H](O)C[C@H](O[C@H]4CC[C@@]5(C)[C@H](CC[C@@H]6[C@@H]5C[C@@H](O)[C@]5(C)[C@@H](C7=CC(=O)OC7)CC[C@]65O)C4)O[C@@H]3C)O[C@@H]2C)C[C@H](O)[C@@H]1O [digoxin] | – | concentration-independent | significantly higher | – | not altered | – | – | – | significantly decreased | significantly decreased | – | – | ~ 0.7 | not altered | unable to restore | unable to restore
